The source of these data is patent US12552797B2, “Process for making (3-[cyclopropylethoxy(difluoro)methyl]-6-6[5-fluoro-6-(2,2,2-trifluoroethoxy-3-pyridyl]- [1,2,4]triazolo[4,3-a]pyrazine” (Praxis Precision Medicines, Inc., priority 2019, dated 2026).

A short description of this data set: Stability of suspension formulations in methylcellulose/Poloxamer 188 vehicles (appearance, concentration, purity, PSD). Also noted: key: *: homogeneous suspension initially, sedimentation occurred over time and returned to homogeneous after gentle agitation for ~1 min; #: viscous homogeneous suspension initially, sedimentation occurred over time and returned to homogeneous after gentle agitation for ~2 mins. Type of data set: physicochemical. The note with it: 96 h at RT. The protocol: As shown in Tables 9-11, various suspension formulations were tested for stability under different conditions.
To prepare a suspension weigh required amount of milled Compound 1 into a glass container and add corresponding volume of the vehicle. Thoroughly disperse the compound into a homogenous suspension using an overhead mixer at the final concentration target. Concentrations were prepared at 0.1 mg/mL and at 10 mg/mL. The suspension products were physically evaluated on visual appearance, concentration, purity and PSD.
The vehicles are prepared by dissolving 0.5% by weight of either 400 cP methylcellulose or 4000 cP methylcellulose and 0.2% Poloxamer 188. For the preserved suspensions, additionally 1.0% by volume of paraben preservative solution was dissolved into vehicle using an overhead mixer. The paraben preservative solution was prepared by dissolving 0.10 g methyl paraben, 0.025 g propylparaben in 9.875 g propylene glycol dissolved by mixing with a stir bar at room temperature for 1 hour.

For `CCOC(F)(F)c1nnc2cnc(-c3cnc(OCC(F)(F)F)c(F)c3)cn12` [Compound 1, 3-(ethoxydifluoromethyl)-6-(5-fluoro-6-(2,2,2-trifluoroethoxy)pyridin-3-yl)-[1,2,4]triazolo[4,3-a]pyrazine], the “Visual Appearance” value (0.5% 400 cP MC, 0.2% Poloxamer 188, 0.1 mg/mL) is “*”; the “Visual Appearance” value (0.5% 400 cP MC, 0.2% Poloxamer 188, 10 mg/mL) is on record as “*”; the “Visual Appearance” value (0.5% 400 cP MC, 0.2% Poloxamer 188 and 1.0% of paraben preservative solution, 0.1 mg/mL) is given as “*”; the “Visual Appearance” value (0.5% 400 cP MC, 0.2% Poloxamer 188 and 1.0% of paraben preservative solution, 10 mg/mL) is “*”; the “Visual Appearance” value (0.5% 4000 cP MC, 0.2% Poloxamer 188, 0.1 mg/mL) was “#”; the “Visual Appearance” value (0.5% 4000 cP MC, 0.2% Poloxamer 188, 10 mg/mL) was “#”. Also, the “Visual Appearance” value is reported as “#” (0.5% 4000 cP MC, 0.2% Poloxamer 188 and 1.0% of paraben preservative solution, 0.1 mg/mL); “#” (0.5% 4000 cP MC, 0.2% Poloxamer 188 and 1.0% of paraben preservative solution, 10 mg/mL).
